Assay results reported in US8759309B2, “Polynucleotides that stimulate neutrophils” (Immunom Technologies, Inc., priority 2010, dated 2014).
Values joined by “and” are separate entries in the source; they are usually repeats but may differ in a detail not shown here. Identical values can stand only once. “Also recorded” adds a separate entry of the source.

System: neutrophils isolated from the kidneys of fathead minnows
Assay: Neutrophil oxidative (respiratory) burst, oxidation of DHR123 to rhodamine by flow cytometry
Format: cell-based, Pimephales promelas
Settings: for % of PMA (oxidative burst): PMA at 1 μg/ml = 100%, * P<0.05; for stimulation of neutrophils (qualitative): exposure of neutrophils to individual oligos and their dimer
From the text: Polynucleotides that stimulate neutrophils may be identified by exposing neutrophils isolated from the kidneys of fathead minnows to one or more polynucleotides complementary to an Initiation Site of Origin of Replication. The oxidation of the non-fluorescent dihydrorhodamine 123 (DHR123) to fluorescent rhodamine (Rh 123) may be determined indirectly by determining fluorescence intensity using spectrofluorometry in a flow cytometer. Rh 123 has an absorption maximum at 507 nm and a fluorescence maximum at 529 nm. Results of fluorescence intensity for the polynucleotide of the present invention and a control may be obtained and compared. The control serves as a reference point for measuring changes in phenotype such as fluorescence intensity. A control may include a neutrophil contacted with a known neutrophil stimulator, such as phorbol myristic acetate (PMA), and/or a neutrophil not exposed to the neutrophil stimulator or the polynucleotide of the present invention. The degree or amount of fluorescent intensity of each sample may be determined at a desired time point and the values of various samples compared. For example, a similar or an increase in the fluorescence intensity level of a sample from a neutrophil exposed to a polynucleotide of the present invention relative to the fluorescence intensity level of a sample from a neutrophil exposed to a known neutrophil stimulator would be indicative of the polynucleotide being able to stimulate neutrophils. For example, an increase in the fluorescence intensity level of a sample from a neutrophil exposed to a polynucleotide of the present invention relative to the fluorescence intensity level of a sample from a control neutrophil not exposed a known neutrophil stimulator or polynucleotide of the present invention would be indicative of the polynucleotide being able to stimulate neutrophils. Other suitable assays may be used to determine neutrophil stimulation, by measuring the uptake of oxygen or destruction of bacteria, including but not limited to. Measuring the release of specific cytokines can also be used to determine neutrophil activity. See: Scapini, P., Llapinet-Vera, J., Gasperini, S., Calzetti, F., Bazzoni, F., Cassatella, M., The Neutrophil as a Cellular Source of Cytokines; Immunol. Rev. 177, 195-203.
Killing microbes by the action of myeloperoxidase requires oxygen. Therefore, measuring the transient increase in oxygen uptake—the respiratory burst—by neutrophils reflects their antimicrobial activity. The respiratory burst, therefore, can be used as an indicator of the extent of neutrophil stimulation.
Oligo A can dimerize with itself which may explain why it had less broad stimulating activity than die Oligo B. It was determined by spectrofluorometry in a flow cytometer which recorded the oxidation of the non-fluorescent dihydrorhodamine 123 (DHR123) to fluorescent rhodamine during exposure of neutrophils to the oligos. Results were compared to the degree of fluorescence of a known powerful neutrophil stimulator, phorbol myristic acetate (PMA).
The degree of stimulation by PMA at a concentration of […] represented in the accompanying graph as 100%.
Neutrophils from fathead minnows were prepared and tested by the Institute for International Cooperation in Animal Biologics, Iowa State Univ., Ames, Iowa 50011 (See: Immunomodulatory Effects of B-glucan on Neutrophil Function in Fathead Minnows, Pimephales promelas Rafinesque, 1820, Dev. and Comp. Immunol. (2006 30; 817-830), Palić, D., et al). Oligos were prepared by Oligos, Etc., Portland, Oreg. 97298).

| Compound | degree of stimulation (reference) (PMA at 1 μg/, set as 100%) | neutrophil destruction (30 μg/ml) | % of PMA (oxidative burst) (Oligo Conc. 0.03 μg/ml) | % of PMA (oxidative burst) (Oligo Conc. 0.3 μg/ml) | % of PMA (oxidative burst) (Oligo Conc. 3 μg/ml) | % of PMA (oxidative burst) (Oligo Conc. 30 μg/ml) | oxidative burst compared with other oligos (P<0.05 denoted by *) | stimulation of neutrophils (qualitative) |
| --- | --- | --- | --- | --- | --- | --- | --- | --- |
| CCCCCCCCCCCCCC(=O)O[C@@H]1[C@@H](C)[C@@]2(O)[C@@H](C=C(CO)C[C@]3(O)C(=O)C(C)=C[C@@H]23)[C@@H]2C(C)(C)[C@]12OC(C)=O [PMA, phorbol myristic acetate, reference compound] | 100% | – | – | – | – | – | – | – |
| 5′UUAUCCACA3′ (UUAUNCACA; chemistry not fully specified) [Oligo B] | – | did not indicate neutrophil destruction | 30 % of PMA and 29.57* % of PMA | 18.32* % of PMA | 33.02* % of PMA | 14.93 % of PMA | significantly higher than Oligo A at all tested concentrations; also recorded: significantly higher than mixtures of Oligos A and B at most concentrations | significant stimulation |
| 5′AAUAggUgU3′ (AAUANGUGU; ribonucleotide, lower-case positions undefined, further chemistry not given here) [Oligo A, ribonucleotide complementary to the consensus core of bacterial Initiation Sites] | – | – | 11.83 % of PMA | 0 % of PMA | 0 % of PMA | 16.21 % of PMA | – | significant stimulation |
